Data reported in patent US4356185A, “Thiazoles” (John Wyeth & Brother Limited, priority 1980, dated 1982).
Values joined by “and” are separate entries in the source; they are usually repeats but may differ in a detail not shown here. Equal values may be shown once.

System: ear edema (croton oil irritant mixture)
Assay: anti-inflammatory activity against croton oil-induced ear edema (based on Tonelli et al), topical
Assay type: in vivo, Sprague-Dawley female rats
Settings: right ear, in irritant mixture, 6 hours
Method: Compounds of formula I were tested for anti-inflammatory activity by the following procedure based on Tonelli et al, Endocrinology 77, 625 (1965):
Sprague-Dawley female rats, weighing 60 to 70 grams, are used in groups of 10. Ear edema is induced by inuncting both sides of the ear with an irritant mixture. This mixture containing 1% croton oil, 20% pyridine, 5% water and 74% diethyl ether, with or without test compound, is applied only once and only to the right ear. Six hours later the animals are sacrificed; a 9 mm diameter portion of both ears is punched out with a cork borer and weighed. The anti-inflammatory activity of the test agent is assessed by expressing the percent of the difference in average weight increase between the ears of the control groups and of the treated group. [formula]
Results found for representative compounds of formula I are tabulated below, together with results found in 3 tests for the preferred compound reported by Brown et al in J. Med. Chem.(loc-cit)namely 4-(p-chlorophenyl)-2-phenylthiazole-5-acetic acid (B): […]

## O=C(O)Cc1sc(-c2ccccc2)nc1-c1ccc(Cl)cc1 [4-(p-chlorophenyl)-2-phenylthiazole-5-acetic acid, reference compound]
Dose 2.5 mg
  % Inhibition: 93% and 79% and 89%
Dose 5 mg
  % Inhibition: 92% and 93%

## CCCCC(=O)Oc1ccc(-c2nc(-c3ccc(Cl)cc3)c(CC(=O)O)s2)cc1 [R = COC4 H9, 4-(4-Chlorophenyl)-2-(4-Valeryloxyphenyl)thiazole-5-acetic acid]
Dose 50 μg
  % Inhibition: 41%
Dose 500 μg
  % Inhibition: 54%
Dose 2.5 mg
  % Inhibition: 71%
Dose 5 mg
  % Inhibition: 87%

## CC(=O)Oc1ccc(-c2nc(-c3ccc(Cl)cc3)c(CC(=O)O)s2)cc1 [R = COCH3, 2-(4-Acetoxyphenyl)-4-(4-chlorophenyl)thiazole-5-acetic acid]
Dose 50 μg
  % Inhibition: -14%
Dose 500 μg
  % Inhibition: 41%
Dose 2.5 mg
  % Inhibition: 85%
Dose 5 mg
  % Inhibition: 100%
